Source: US5801180A, “Quinazoline derivatives” (priority 1991, dated 1998)

Biological target: T1, cGMP-PDE prepared from the swine aeorta (Sus scrofa, UniProt A0A287B475)
T1 construct: The swine aeorta was sliced; from tissue; host or cells: swine aorta, 100000×g supernatant, DEAE-Toyopearl 650S fraction
Test: Enzyme inhibiting action with the use of cGMP-PDE prepared from the swine aorta
Format: biochemical
Conditions: CaM-independent cGMP-PDE, 1 mM EGTA, 1 μM cGMP substrate, DMSO 4% or below
Method: Enzyme inhibiting action with the use of cGMP-PDE prepared from the swine aeorta
The enzymatic activity of the cGMP-PDE prepared from the swine aeorta was determined according to the method of Thompson et al. ^(1). The enzymatic activity thereof was determined in the presence of 1 mM EGTA by the use of 1 μM cGMP as a substrate. The compound of the present invention was dissolved in DMSO, added to the reaction liquid and examined for the inhibitory activity. The final concentration of DMSO in the reaction liquid was adjusted to 4% or below. (1) Thompson, W. J. and Strada, S. J., Cyclic Nucleotide Phosphodiesterase (PDE), in Methods of Enzymatic Analysis, vol 4, p.127-234, 1984.
The swine aeorta was sliced, followed by the addition of 10 times by volume as much Buffer A (20 mM Tris/HCl, 2 mM Mg acetate, 1 mM Dithiothreitol, 5 mM EDTA, 1400 TIU/liter aprotinin, 10 mg/liter leupeptin, 1 mM benzamidine, 0.2 mM PMSF, pH 7.5). The obtained mixture was homogenized and the homogenate was centrifuged at 100000×g for one hour. The obtained supernatant was supplied a DEAE-Toyopearl 650S (Tosoh, Tokyo, Japan) column. After the column was washed with Buffer B (50 mM Tris/HCl, 0.1 mM EGTA, 2 mM Mg acetate, 1 mM Dithiothreitol, 0.2 mM PMSF, pH 7.5), gradient elution with 0.05 to 0.4M NaCl was conducted. Thus, CaM-independent cGMP-PDE fractions were obtained.

CCOc1ccc2ncnc(NCc3ccc4c(c3)OCO4)c2c1 [Example 64, 4-(3,4-Methylenedioxybenzyl)amino-6-ethoxyquinazoline]
IC50: 0.38 µM

N#Cc1ccc2ncnc(NCc3ccc4nc[nH]c4c3)c2c1 [Example 67, 4-(Benzimidazol-5-yl)methylamino-6-cyanoquinazoline]
IC50: 0.14 µM

CCOC(=O)c1ccc2ncnc(NCc3ccc4c(c3)OCO4)c2c1 [Example 68, 4-(3,4-Methylenedioxybenzyl)amino-6-ethoxycarbonylquinazoline]
IC50: 0.62 µM

Cc1ccc2ncnc(NCc3ccc4c(c3)OCO4)c2c1 [Example 69, 4-(3,4-Methylenedioxybenzyl)amino-6-methylquinazoline]
IC50: 0.19 µM

COc1cc(OC)c2ncnc(NCc3ccc4c(c3)OCO4)c2c1 [Example 71, 4-(3,4-Methylenedioxybenzyl)amino-6,8-dimethoxyquinazoline]
IC50: 0.81 µM

COc1ccc2ncnc(NCc3ccc4c(c3)OCO4)c2c1OC [Example 72, 4-(4-Methylenedioxybenzyl)amino-5,6-dimethoxyquinazoline]
IC50: 0.73 µM

COc1cc2ncnc(NCc3ccc4c(c3)OCO4)c2cc1NC(C)=O [Example 73, 4-(3,4-Methylenedioxybenzyl)amino-6-acetamido-7-methoxyquinazoline]
IC50: 0.94 µM

COc1cc2ncnc(NCc3ccc4c(c3)OCO4)c2cc1SC [Example 74, 4-(34-Methylenedioxybenzyl)amino-6-methylthio-7-methoxyquinazoline]
IC50: 0.35 µM

c1ccc2cc3c(NCc4ccc5c(c4)OCO5)ncnc3cc2c1 [Example 78, 4-(3,4-Methylenedioxybenzyl)aminobenzo[g]quinazoline]
IC50: 0.5 µM

COc1cc2c(NCc3ccc4c(c3)OCO4)nc(C)nc2c(OC)c1OC [Example 81, 2-Methyl-4-(3,4-methylenedioxybenzyl)amino-6,7,8-trimethoxyquinazoline]
IC50: 0.44 µM

COc1ccc2nc(C(C)C)nc(NCc3ccc4c(c3)OCO4)c2c1 [Example 82, 2-Isopropyl-4-(3,4-methylenedioxybenzyl)amino-6-methoxyquinazoline]
IC50: 0.55 µM

CCCOc1ccccc1-c1nc(NCc2ccc3c(c2)OCO3)c2cc(Cl)ccc2n1 [Example 83, 2-(2-Propoxyphenyl)-4-(3,4-methylenedioxybenzyl)amino-6-chloroquinazoline]
IC50: 0.024 µM

CCCOc1ccccc1-c1nc(NCc2ccc3c(c2)OCO3)c2ccccc2n1 [Example 84, 2-(2-Propoxyphenyl)-4-(3,4-methylenedioxybenzyl)aminoquinazoline]
IC50: 0.22 µM

COc1ccc2nc(OC)nc(NCc3ccc4c(c3)OCO4)c2c1 [Example 89, 2,6-Dimethoxy-4-(3,4-methylenedioxybenzyl)aminoquinazoline]
IC50: 0.16 µM

COc1ccc2nc(OCc3ccccc3)nc(NCc3ccc4c(c3)OCO4)c2c1 [Example 91, 2-Benzyloxy-4-(4-methylenedioxybenzyl)amino-6-methoxyquinazoline]
IC50: 0.036 µM

Clc1ccc2nc(Cl)nc(NCc3ccc4c(c3)OCO4)c2c1 [Example 92, 2,6-Dichloro-4-(3,4-methylenedioxybenzyl)aminoquinazoline]
IC50: 0.094 µM

N#Cc1ccc2nc(Cl)nc(NCc3ccc4c(c3)OCO4)c2c1 [Example 93, 2-Chloro-4-(3,4-methylenedioxybenzyl)amino-6-cyanoquinazoline]
IC50: 0.032 µM

COc1cc2c(NCc3ccc4c(c3)OCO4)nc(Cl)nc2c(OC)c1OC [Example 95, 2-Chloro-4-(3,4-methylenedioxybenzyl)amino-6,7,8-trimethoxyquinazoline]
IC50: 0.2 µM

COc1cc2nc(Cl)nc(NCc3ccc4c(c3)OCO4)c2cc1OC [Example 97]
IC50: 0.79 µM

COc1ccc2nc(Cl)nc(NCc3ccc4c(c3)OCO4)c2c1 [Example 98, 2-Chloro-4-(3,4-methylenedioxybenzyl)amino-6-methoxyquinazoline]
IC50: 0.062 µM

N#Cc1ccc2nc(Cl)nc(NCc3ccc4nc[nH]c4c3)c2c1 [Example 104, 2-Chloro-4-(benzimidazol-5-yl)methylamino-6-cyanoquinazoline]
IC50: 0.01 µM

COc1cc2c(N(CCO)Cc3ccc4c(c3)OCO4)nc(Cl)nc2c(OC)c1OC [Example 105, 2-Chloro-4-[N-(2-hydroxyethyl)-(3,4-methylenedioxybenzyl)amino]-6,7,8-trimethoxyquinazoline]
IC50: 0.18 µM

CCOC(=O)c1nc(NCc2ccc3c(c2)OCO3)c2cc(Cl)ccc2n1 [Example 107, 2-Ethoxycarbonyl-4-(3,4-methylenedioxybenzyl)amino-6-chloroquinazoline]
IC50: 0.004 µM

CCOC(=O)/C(C)=C/c1nc(NCc2ccc3c(c2)OCO3)c2cc(Cl)ccc2n1 [Example 112, (E)-2-(2-Ethoxycarbonyl-1-propenyl)-4-(3,4-methylenedioxybenzyl)amino-6-chloroquinazoline]
IC50: 0.002 µM

CCOC(=O)/C=C/c1nc(NCc2ccc3c(c2)OCO3)c2cc(Cl)ccc2n1 [Example 114, (E)-2-(2-Ethoxycarbonylvinyl)-4-(3,4-methylenedioxybenzyl)amino-6-chloroquinazoline]
IC50: 0.003 µM

CCOC(=O)/C=C/c1nc(NCc2ccc(OC)c(Cl)c2)c2cc(Cl)ccc2n1 [Example 115, (E)-2-(2-Ethoxycarbonylvinyl)-4-(3-chloro-4-methoxybenzyl)amino-6-chloroquinazoline]
IC50: 0.002 µM

C/C(=C\c1nc(NCc2ccc3c(c2)OCO3)c2cc(Cl)ccc2n1)C(=O)O [Example 120, (E)-2-(2-Carboxy-1-propenyl)-4-(3,4-methylenedioxybenzyl)amino-6-chloroquinazoline]
IC50: 0.001 µM

O=C(O)c1nc(NCc2ccc3c(c2)OCO3)c2cc(Cl)ccc2n1 [Example 121, 2-Carboxy-4-(3,4-methylenedioxybenzyl)amino-6-chloroquinazoline]
IC50: 0.65 µM

O=C(O)/C=C/c1nc(NCc2ccc3c(c2)OCO3)c2cc(Cl)ccc2n1 [Example 122, (E)-2-(2-Carboxyvinyl)-4-(3,4-methylenedioxybenzyl)amino-6-chloroquinazoline]
IC50: 0.005 µM

C/C(=C/c1nc(NCc2ccc3c(c2)OCO3)c2cc(Cl)ccc2n1)C(=O)O [Example 123, (Z)-2-(2-carboxy-1-propenyl)-4-(3,4-methylenedioxybenzyl)amino-6-chloroquinazoline]
IC50: 0.031 µM

COc1ccc(CNc2nc(/C=C/C(=O)O)nc3ccc(Cl)cc23)cc1Cl [Example 124, (E)-2-(2-carboxyvinyl)-4-(3-chloro-4-methoxybenzyl)amino-6-chloroquinazoline]
IC50: 0.008 µM

COc1ccc(CNc2nc(/C=C(\C)C(=O)O)nc3ccc(Cl)cc23)cc1Cl [Example 125, (E)-2-(2-Carboxy-1-propenyl)-4-(3-chloro-4-methoxybenzyl)amino-6-chloroquinazoline]
IC50: 0.009 µM

COc1ccc(CNc2nc(/C=C(/C)C(=O)O)nc3ccc(Cl)cc23)cc1Cl [Example 126, (Z)-2-(2-Carboxy-1-propenyl)-4-(3-chloro-4-methoxybenzyl)amino-6-chloroquinazoline]
IC50: 0.001 µM

COc1cc2c(NCc3ccc4c(c3)OCO4)nc(/C=C(\C)C(=O)O)nc2c(OC)c1OC [Example 127, (E)-2-(2-Carboxy-1-propenyl)-4-(3,4-methylenedioxybenzyl)amino-6,7,8-trimethoxyquinazoline]
IC50: 0.11 µM

COc1cc2c(NCc3ccc4c(c3)OCO4)nc(/C=C(/C)C(=O)O)nc2c(OC)c1OC [Example 128, (Z)-2-(2-Carboxy-1-propenyl)-4-(3,4-methylenedioxybenzyl)amino-6,7,8-trimethoxyquinazoline]
IC50: 0.3 µM

NC(=O)c1ccc2ncnc(NCc3ccc4c(c3)OCO4)c2c1 [Example 133, 4-(3,4-Methylenedioxybenzyl)amino-6-carbamoylquinazoline]
IC50: 0.77 µM

NC(=O)c1nc(NCc2ccc3c(c2)OCO3)c2cc(Cl)ccc2n1 [Example 134, 2-Carbamoyl-4-(3,4-methylenedioxybenzyl)amino-6-chloroquinazoline]
IC50: 0.005 µM

OCc1ccc2ncnc(NCc3ccc4c(c3)OCO4)c2c1 [Example 136]
IC50: 0.93 µM

CS(=O)(=O)c1ccc2ncnc(NCc3ccc4c(c3)OCO4)c2c1 [Example 138, 4-(3,4-Methylenedioxybenzyl)amino-6-methysulfonylquinazoline]
IC50: 0.81 µM

COc1ccc2nc(CO)nc(NCc3ccc4c(c3)OCO4)c2c1 [Example 139, 2-Hydroxymethyl-4-(3,4-methylenedioxybenzyl)amino-6-methoxyquinazoline]
IC50: 0.021 µM

COc1ccc2nc(O)nc(NCc3ccc4c(c3)OCO4)c2c1 [Example 140, 2-Hydroxy-4-(3,4-methylenedioxybenzyl)amino-6-methoxyquinazoline]
IC50: 0.68 µM

ON=Cc1nc(NCc2ccc3c(c2)OCO3)c2cc(Cl)ccc2n1 [Example 146, 2-Hydroxyiminomethyl-4-(3,4-methylenedioxybenzyl)amino-6-chloroquinazoline]
IC50: 0.015 µM
